Data published in patent publication US8148367B2 (Takeda Pharmaceutical Company Limited, priority 2008, dated 2012).

target: T1, Recombinant human renin (Homo sapiens, UniProt P00797); assay: In vitro enzymatic activity assay of renin inhibitors (fluorescence, QXL520/HiLyteFluo488 peptide substrate); type: biochemical; conditions: not given
T1 construct: isolate the active form (residues 67-406); made in house; host or cells: FreeStyle 293-F cells, transient expression of pcDNA3.1(+)/hREN
T1 sequence (P00797 67-406): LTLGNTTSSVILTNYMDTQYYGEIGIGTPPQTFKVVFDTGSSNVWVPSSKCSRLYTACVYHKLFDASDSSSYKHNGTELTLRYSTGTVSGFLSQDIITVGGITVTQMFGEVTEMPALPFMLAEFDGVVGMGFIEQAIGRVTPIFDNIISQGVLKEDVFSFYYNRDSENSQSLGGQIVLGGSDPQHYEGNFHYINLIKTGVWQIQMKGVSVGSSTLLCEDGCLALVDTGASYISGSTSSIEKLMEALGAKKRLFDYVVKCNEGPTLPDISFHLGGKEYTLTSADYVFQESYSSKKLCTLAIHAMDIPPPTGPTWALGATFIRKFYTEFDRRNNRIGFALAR

Compound | IC50
Cc1ccccc1-n1c(-c2ccccc2)c(C(=O)N2CCNCC2)n(CCNC(=O)Oc2ccccc2)c1=O [Example 248, Phenyl 2-(2-oxo-4-phenyl-5-(piperazine-1-carbonyl)-3-o-tolyl-2,3-dihydro-1H-imidazol-1-yl)ethylcarbamate] | > 1000 nM

same assay, conditions: recombinant human renin 3 nM, 1 μM substrate, pre-incubated 10 minutes at 37° C., incubation one hour, pH 7.4, 5% DMSO; read-out: IC50 of Exemplified Compounds Against Renin

Compound | IC50
Cn1c(C(=O)N2CCNC[C@H]2Cc2ccccc2)c(-c2ccccc2)n(-c2cccc(N3CCOCC3)c2)c1=O [Example 55, (R)-4-(2-Benzylpiperazine-1-carbonyl)-3-methyl-1-(3-morpholinophenyl)-5-phenyl-1H-imidazol-2(3H)-one] | 100 to 500 nM
O=C(c1[nH]c(=O)n(-c2ccccc2NS(=O)(=O)C2CC2)c1-c1ccccc1)N1CCNC[C@H]1Cc1ccccc1 [Example 123, (R)—N-(2-(4-(2-Benzylpiperazine-1-carbonyl)-2-oxo-5-phenyl-2,3-dihydro-1H-imidazol-1-yl)phenyl)cyclopropanesulfonamide] | 100 to 500 nM
O=C(c1c(-c2ccccc2)n(-c2ccccn2)c(=O)n1Cc1ccccc1)N1CCNCC1 [Example 46, 1-Benzyl-4-phenyl-5-(piperazine-1-carbonyl)-3-(pyridin-2-yl)-1H-imidazol-2(3H)-one] | > 1000 nM
N#Cc1ccccc1Cn1c(C(=O)N2CCNCC2)c(-c2ccccc2)n(-c2ccccc2)c1=O [Example 85, 2-((2-Oxo-3,4-diphenyl-5-(piperazine-1-carbonyl)-2,3-dihydro-1H-imidazol-1-yl)methyl)benzonitrile] | > 1000 nM
CCCCN1CCCc2ccc(-n3c(-c4ccccc4)c(C(=O)N4CCNC[C@H]4Cc4ccccc4)[nH]c3=O)cc21 [Example 131] | < 100 nM
O=C(c1[nH]c(=O)n(-c2nc3ccccc3[nH]2)c1-c1ccccc1)N1CCNCC1 [Example 44, 1-(1H-benzo[d]imidazol-2-yl)-5-phenyl-4-(piperazine-1-carbonyl)-1H-imidazol-2(3H)-one] | > 1000 nM
Cc1ccccc1-n1c(-c2ccccc2)c(C(=O)N2CCNCC2)n(Cc2cccc(Oc3ccccc3)c2)c1=O [Example 142, 1-(3-Phenoxybenzyl)-4-phenyl-5-(piperazine-1-carbonyl)-3-o-tolyl-1H-imidazol-2(3H)-one] | 100 to 500 nM
O=C(c1[nH]c(=O)n(-c2ccc3c(c2)NCCC3)c1-c1ccccc1)N1CCNC[C@H]1CCOc1ccccc1 [Example 140, (R)-4-(2-(2-Phenoxyethyl)piperazine-1-carbonyl)-5-phenyl-1-(1,2,3,4-tetrahydroquinolin-7-yl)-1H-imidazol-2(3H)-one] | < 100 nM
O=C(c1[nH]c(=O)n(-c2ccccc2)c1-c1ccc(Cl)cc1)N1CCNCC1 [Example 28, 5-(4-Chlorophenyl)-1-phenyl-4-(piperazine-1-carbonyl)-1H-imidazol-2(3H)-one] | > 1000 nM
CN1CCOc2ccc(-n3c(-c4ccccc4)c(C(=O)N4CCNC[C@H]4Cc4ccccc4)[nH]c3=O)cc21 [Example 135, (R)-4-(2-Benzylpiperazine-1-carbonyl)-1-(4-methyl-3,4-dihydro-2H-benzo[b][1,4]oxazin-6-yl)-5-phenyl-1H-imidazol-2(3H)-one] | < 100 nM
COc1ccc(-c2cc(Cn3c(C(=O)N4CCNCC4)c(-c4ccccc4)n(C4CCCCC4)c3=O)ccn2)cn1 [Example 17F, 1-Cyclohexyl-3-((6′-methoxy-2,3′-bipyridin-4-yl)methyl)-5-phenyl-4-(piperazine-1-carbonyl)-1H-imidazol-2(3H)-one] | 100 to 500 nM
C=CCn1c(C(=O)N2CCNCC2)c(-c2ccccc2)n(C2CCCCC2)c1=O [Example 62, 1-Allyl-3-cyclohexyl-4-phenyl-5-(piperazine-1-carbonyl)-1H-imidazol-2(3H)-one] | > 1000 nM
COc1cc(-c2cc(Cn3c(C(=O)N4CCNCC4)c(-c4ccccc4)n(C4CCCCC4)c3=O)cc(-c3ccnc(OC)c3)n2)ccn1 [Example 17E, 1-Cyclohexyl-3-((2,6-di(2-methoxyl-pyridine-4-yl)pyridin-4-yl)methyl)-5-phenyl-4-(piperazine-1-carbonyl)-1H-imidazol-2(3H)-one] | 100 to 500 nM
CCCS(=O)(=O)Nc1ccccc1-n1c(-c2ccccc2)c(C(=O)N2CCNC[C@H]2Cc2ccccc2)[nH]c1=O [Example 119, (R)—N-(2-(4-(2-Benzylpiperazine-1-carbonyl)-2-oxo-5-phenyl-2,3-dihydro-1H-imidazol-1-yl)phenyl)propane-1-sulfonamide] | < 100 nM
COc1ccccc1-n1c(-c2ccccc2)c(C(=O)N2CCNC[C@H]2Cc2ccccc2)[nH]c1=O [Example 113, (R)-4-(2-Benzylpiperazine-1-carbonyl)-1-(2-methoxyphenyl)-5-phenyl-1H-imidazol-2(3H)-one] | < 100 nM
CS(=O)(=O)c1cccc(-n2c(-c3ccccc3)c(C(=O)N3CCNC[C@H]3Cc3ccccc3)[nH]c2=O)c1 [Example 114, (R)-4-(2-Benzylpiperazine-1-carbonyl)-1-(3-(methylsulfonyl)phenyl)-5-phenyl-1H-imidazol-2(3H)-one] | < 100 nM
COc1cccc(Cn2c(C(=O)N3CCNCC3)c(-c3ccccc3)n(-c3ccccc3)c2=O)c1 [Example 83, 1-(3-methoxybenzyl)-3,4-diphenyl-5-(piperazine-1-carbonyl)-1H-imidazol-2(3H)-one] | 100 to 500 nM
CC(C)NC(=O)NCCCn1c(C(=O)N2CCNCC2)c(-c2ccccc2)n(-c2cccc(N3CCOCC3)c2)c1=O [Example 61, 1-Isopropyl-3-(3-(3-(3-morpholinophenyl)-2-oxo-4-phenyl-5-(piperazine-1-carbonyl)-2,3-dihydro-1H-imidazol-1-yl)propyl)urea] | > 1000 nM
O=C(c1[nH]c(=O)n(-c2ccc3c(c2)NCCC3)c1C1CC1)N1CCNC[C@H]1Cc1ccccc1 [Example 134, (R)-4-(2-Benzylpiperazine-1-carbonyl)-5-cyclopropyl-1-(1,2,3,4-tetrahydroquinolin-7-yl)-1H-imidazol-2(3H)-one] | 500 to 1000 nM

Second part, the molecule after the results:

IC50 | Compound
100 to 500 nM | COc1ccccc1-n1c(-c2ccccc2)c(C(=O)N2CCNCC2)n(Cc2cccc(OCCOc3ccccc3)c2)c1=O [Example 188, 1-(2-Methoxyphenyl)-3-(3-(2-phenoxyethoxy)benzyl)-5-phenyl-4-(piperazine-1-carbonyl)-1H-imidazol-2(3H)-one]
> 1000 nM | O=C(NCCCn1c(C(=O)N2CCNCC2)c(-c2ccccc2)n(-c2cccc(N3CCOCC3)c2)c1=O)c1ccccc1 [Example 174]
500 to 1000 nM | COc1ccc(C(=O)NCCn2c(C(=O)N3CCNCC3)c(-c3ccccc3)n(-c3ccccc3C)c2=O)cc1 [Example 235, 4-Methoxy-N-(2-(2-oxo-4-phenyl-5-(piperazine-1-carbonyl)-3-o-tolyl-2,3-dihydro-1H-imidazol-1-yl)ethyl)benzamide]
> 1000 nM | Cc1ccccc1-n1c(-c2ccccc2)c(C(=O)N2CCNCC2)n(CCNS(=O)(=O)c2cccc(Cl)c2)c1=O [Example 205, 3-Chloro-N-(2-(2-oxo-4-phenyl-5-(piperazine-1-carbonyl)-3-o-tolyl-2,3-dihydro-1H-imidazol-1-yl)ethyl)benzenesulfonamide]
> 1000 nM | CCOC(=O)NCCCn1c(C(=O)N2CCNCC2)c(-c2ccccc2)n(-c2ccccc2C)c1=O [Example 254, Ethyl 3-(2-oxo-4-phenyl-5-(piperazine-1-carbonyl)-3-o-tolyl-2,3-dihydro-1H-imidazol-1-yl)propylcarbamate]
100 to 500 nM | COc1cccc(Cn2c(C(=O)N3CCNCC3)c(-c3ccccc3)n(-c3ccccc3C)c2=O)c1 [Example 143, 1-(3-Methoxybenzyl)-4-phenyl-5-(piperazine-1-carbonyl)-3-o-tolyl-1H-imidazol-2(3H)-one]
> 1000 nM | COc1ccc(S(=O)(=O)NCCn2c(C(=O)N3CCNCC3)c(-c3ccccc3)n(-c3ccccc3C)c2=O)cc1 [Example 210, 4-Methoxy-N-(2-(2-oxo-4-phenyl-5-(piperazine-1-carbonyl)-3-o-tolyl-2,3-dihydro-1H-imidazol-1-yl)ethyl)benzenesulfonamide]
500 to 1000 nM | COc1ccccc1C(=O)NCCn1c(C(=O)N2CCNCC2)c(-c2ccccc2)n(-c2ccccc2C)c1=O [Example 234, 2-Methoxy-N-(2-(2-oxo-4-phenyl-5-(piperazine-1-carbonyl)-3-o-tolyl-2,3-dihydro-1H-imidazol-1-yl)ethyl)benzamide]
500 to 1000 nM | O=C(NCCn1c(C(=O)N2CCNCC2)c(-c2ccccc2)n(-c2cccc(N3CCOCC3)c2)c1=O)c1ccccc1 [Example 177, N-(2-(3-(3-Morpholinophenyl)-2-oxo-4-phenyl-5-(piperazine-1-carbonyl)-2,3-dihydro-1H-imidazol-1-yl)ethyl)benzamide]
> 1000 nM | C=CCn1c(C(=O)N2CCNCC2)c(-c2ccccc2)n(-c2ccccc2OC)c1=O [Example 145, 1-Allyl-3-(2-methoxyphenyl)-4-phenyl-5-(piperazine-1-carbonyl)-1H-imidazol-2(3H)-one]
> 1000 nM | Cc1ccccc1-n1c(-c2ccccc2)c(C(=O)N2CCNCC2)n(CCCNC(=O)c2ccccc2F)c1=O [Example 240, 2-Fluoro-N-(3-(2-oxo-4-phenyl-5-(piperazine-1-carbonyl)-3-o-tolyl-2,3-dihydro-1H-imidazol-1-yl)propyl)benzamide]
> 1000 nM | COc1ccccc1-n1c(-c2ccccc2)c(C(=O)N2CCNCC2)n(CC2CCCCC2)c1=O [Example 160, 1-(Cyclohexylmethyl)-3-(2-methoxyphenyl)-4-phenyl-5-(piperazine-1-carbonyl)-1H-imidazol-2(3H)-one]
